Source: US11059823B2, “Small molecule inhibitors of the JAK family of kinases” (Janssen Pharmaceutica NV, priority 2016, dated 2021)

Experiments:
JAK3-JH1JH2 = JAK3-JH1JH2 (Homo sapiens (Human), UniProt P52333); assay: Enzymatic inhibition assay (HTMS), JAK3; format: biochemical; details: 150 μM ATP; read-out: JAK3_I_JH1JH2 IC50
Text: (§1) JAK1-JH1JH2 (574-1154 with a His-GST Tag and a C-terminal tev (ENLYFQ-G) cleavage site), JAK3-JH1JH2 (512-1124 with a GST Tag and a C-terminal tev (ENLYFQ-G) cleavage site), and Tyk2-JH1JH2 (8H_tev_580-1182-C936A-C1142A with a C-terminal tev (ENLYFQ-G) cleavage site) were purified internally. […] LC/MS grade water and acetonitrile (ACN), were purchased from HoneyWell, Burdick & Jackson (Muskegon, Mich., USA). Dimethylsulfoxide 99.8% (DMSO) and trifluoroacetic acid 99.5% (TFA) were purchased from EMD Chemical (Gibbstown, N.J., USA). Adenosine triphosphate (ATP), 4-morpholinepropanesulfonic acid (MOPS), magnesium chloride (MgCl2), ethylenediaminetetraacetic acid (EDTA), dithiothreitol (DTT), formic acid >95% (FA) and Tween-20 were purchased from Sigma (St Louis, Mo., USA). 384-well polypropylene plates, Cat#781280 were purchased from Greiner (Monroe, N.C.), RapidFire™ cartridge A C4 Column (Agilent Technologies, Santa Clara, Calif.). […]
(§2) 11-point dosing series were made for each compound by serially diluting 1:3 or 1:4 in DMSO, with point 12 being a DMSO control. […] Compound inhibition was assessed by a decrease of the phosphorylated product levels in sample wells compared to the non-inhibited enzyme reaction. […]

P-gp (MDR1) = assay: MDCK-MDR1 permeability assay; format: in vitro ADME; details: dog
Description: Permeability measurements were conducted according to the Cyprotex protocol using the MDCK-MDR1 cell line obtained from the NIH (Rockville, Md., USA). […] The cells in this assay form a cohesive sheet of a single cell layer filing the surface area of the culture dish, also known as a confluent monolayer, and on day four the test compound was added to the apical side of the membrane and the transport of the compound across the monolayer was monitored over a time period of 60 min.
Test compounds were dissolved in DMSO at a concentration of 10 mM. The dosing solutions were prepared by diluting test compound with assay buffer (Hanks Balanced Salt Solution), pH 7.4, at a final concentration of 5 μM. For assessment of apical to basolateral (“A-B”) permeability, buffer was removed from the apical compartment and replaced with test compound dosing solution with or without the permeability glycoprotein (“PgP”, “P-gP”, “Pgp” or “P-gp”) inhibitor elacridar (2 μM). For assessment of basolateral to apical (“B-A”) permeability, buffer was removed from the companion plate and replaced with test compound dosing solution. Incubations were carried out in duplicate at 37° C. in an atmosphere of 5% CO2 with a relative humidity of 95%. Each assay included the reference markers propranolol (high permeability) and prazosin (PgP substrate). After incubation for 60 minutes, apical and basolateral samples were diluted and test compounds quantified by LC/MS/MS using an 8-point calibration in the range 0.0039 to 3 μM with appropriate dilution of the samples (receiver dilution factor=1; donor and Co dilution factor=10). The permeability coefficient (Papp) for each compound was calculated from the following equation: Papp=(dQ/dt)/(C0×S), where dQ/dt is the rate of permeation of the drug across the cells, C0 is the donor compartment concentration at time zero, and S is the area of the cell monolayer.
Papp(A-B) gives an indication of permeation extent across the cells in this assay, which is envisaged to model the transcellular transport across Pgp-expressing cells, such as Pgp-expressing gastrointestinal tract cells.

Tyk2-JH1JH2 = Tyk2-JH1JH2 (Homo sapiens (Human), UniProt P29597, C1142A/C936A); assay: Enzymatic inhibition assay (HTMS), Tyk2; format: biochemical; details: 50 μM ATP; read-out: Tyk2_I_JH1JH2 IC50
Text: as §1, §2

JAK2-JH1JH2 = JAK2-JH1JH2 (Homo sapiens (Human), UniProt O60674); assay: Enzymatic inhibition assay (HTMS), JAK2; format: biochemical; details: 30 μM ATP; read-out: JAK2_I_JH1JH2 IC50
Text: as §1, §2

Chain of Tyk2-JH1JH2 (P29597 580-1182 C936A/C1142A): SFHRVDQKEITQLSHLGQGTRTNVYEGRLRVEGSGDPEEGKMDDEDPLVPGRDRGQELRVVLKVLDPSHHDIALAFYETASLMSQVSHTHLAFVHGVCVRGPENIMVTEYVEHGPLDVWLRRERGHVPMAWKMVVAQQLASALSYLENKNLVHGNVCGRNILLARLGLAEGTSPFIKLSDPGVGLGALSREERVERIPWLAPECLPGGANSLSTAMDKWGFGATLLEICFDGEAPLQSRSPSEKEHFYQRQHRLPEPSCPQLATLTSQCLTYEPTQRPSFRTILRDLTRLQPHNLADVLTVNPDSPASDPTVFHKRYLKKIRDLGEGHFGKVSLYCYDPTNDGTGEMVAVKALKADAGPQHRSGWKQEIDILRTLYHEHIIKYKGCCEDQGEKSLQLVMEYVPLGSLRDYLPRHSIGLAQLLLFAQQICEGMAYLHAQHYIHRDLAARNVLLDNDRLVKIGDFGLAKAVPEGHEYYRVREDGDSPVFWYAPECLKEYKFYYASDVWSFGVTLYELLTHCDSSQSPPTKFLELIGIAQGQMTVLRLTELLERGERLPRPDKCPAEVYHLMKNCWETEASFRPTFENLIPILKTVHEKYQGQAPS
Chain of JAK3-JH1JH2 (P52333 512-1124): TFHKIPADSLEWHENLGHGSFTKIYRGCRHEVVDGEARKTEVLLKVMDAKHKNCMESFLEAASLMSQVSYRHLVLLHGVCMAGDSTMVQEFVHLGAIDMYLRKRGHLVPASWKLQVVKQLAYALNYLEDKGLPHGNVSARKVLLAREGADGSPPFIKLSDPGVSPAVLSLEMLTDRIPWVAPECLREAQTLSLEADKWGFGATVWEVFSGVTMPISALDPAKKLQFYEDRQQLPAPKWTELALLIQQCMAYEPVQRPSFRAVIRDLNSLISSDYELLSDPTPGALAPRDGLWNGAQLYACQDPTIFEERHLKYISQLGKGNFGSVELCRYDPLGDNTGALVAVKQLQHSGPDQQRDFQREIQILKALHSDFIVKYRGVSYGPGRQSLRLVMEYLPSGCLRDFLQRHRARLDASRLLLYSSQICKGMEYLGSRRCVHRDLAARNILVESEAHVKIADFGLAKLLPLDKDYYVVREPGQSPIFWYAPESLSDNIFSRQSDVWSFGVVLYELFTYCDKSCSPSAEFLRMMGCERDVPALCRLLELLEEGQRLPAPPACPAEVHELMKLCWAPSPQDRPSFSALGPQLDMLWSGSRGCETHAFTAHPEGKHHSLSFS
Chain of JAK2-JH1JH2 (O60674 532-1132): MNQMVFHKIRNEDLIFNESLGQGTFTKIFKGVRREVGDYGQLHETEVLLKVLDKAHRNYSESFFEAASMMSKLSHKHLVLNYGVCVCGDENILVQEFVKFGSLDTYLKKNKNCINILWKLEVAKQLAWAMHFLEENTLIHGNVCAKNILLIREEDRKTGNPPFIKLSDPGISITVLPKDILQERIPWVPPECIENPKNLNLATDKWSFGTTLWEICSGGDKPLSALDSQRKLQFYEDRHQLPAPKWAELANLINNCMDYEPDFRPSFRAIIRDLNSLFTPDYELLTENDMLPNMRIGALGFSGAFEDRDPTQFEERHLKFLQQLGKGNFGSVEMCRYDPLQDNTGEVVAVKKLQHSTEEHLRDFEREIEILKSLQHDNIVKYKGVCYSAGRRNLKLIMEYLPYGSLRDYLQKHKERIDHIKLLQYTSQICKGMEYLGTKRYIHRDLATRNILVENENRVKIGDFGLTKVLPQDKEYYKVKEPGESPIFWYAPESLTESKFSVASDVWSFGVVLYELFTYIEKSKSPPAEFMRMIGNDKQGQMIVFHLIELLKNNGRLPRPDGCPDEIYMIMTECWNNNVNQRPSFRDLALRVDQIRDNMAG

N#CC[C@H]1CC[C@H](n2c(-c3c[nH]cn3)nc3cnc4[nH]ccc4c32)CC1 [Ex. 2, 2-((1r,4r)-4-(2-(1H-Imidazol-4-yl)imidazo[4,5-d]pyrrolo[2,3-b]pyridin-1(6H)-yl)cyclohexyl)acetonitrile]
IC50 (JAK3-JH1JH2): 33.9 nM | Papp A→B at 60 min, 5 µM (P-gp (MDR1); MDCK-MDR1, pH 7.4, apical-to-basolateral, without elacridar, 5 μM, 60 min): 1.1 ×10⁻⁶ cm/s | Papp B→A at 60 min, 5 µM (P-gp (MDR1); MDCK-MDR1, pH 7.4, basolateral-to-apical, 5 μM, 60 min): 4.8 ×10⁻⁶ cm/s | efflux ratio at 60 min, 5 µM (P-gp (MDR1); pH 7.4, MDCK-MDR1, 5 μM, read-out: Papp(B-A)/Papp(A-B) (efflux ratio)): 4.4 | IC50 (Tyk2-JH1JH2): 1.5 nM | IC50 (JAK2-JH1JH2): 1 nM
